Data taken from patent US20230381192A1, “METHODS FOR CONTROLLING AND PREDICTING RECOVERY AFTER NMBA ADMINISTRATION” (Cornell University, priority 2020, published 2023).

What was measured:
Healthy volunteers = assay: Phase I: NMB measured by mechanomyography (twitch T1, TOFR) in healthy volunteers under sevoflurane/N2O; assay type: in vivo, human; conditions: for mean time to 95% T1 recovery: spontaneous recovery
Description: Twitch Height: A peripheral nerve stimulator that applies supramaximal. stimuli to the ulnar nerve at the wrist via surface electrodes was used for neuromuscular monitoring. Following anesthesia induction, single twitch stimuli (0.10 Hz) may be delivered continuously during a 15- to 20- minute period to establish baseline twitch height. Single twitch may continue during and following NMBA administration.
Train-of-Four twitch stimulation pattern ratio (TOFR): The TOP delivers 4 supramaximal electrical impulses that involve four equally strong twitches of the stimulated muscle. A fade of the twitches appears when the neuromuscular blockade increases. Comparison of the fourth twitch (T4) to the first twitch (T1) provides the TOFR.
(Abstract available in the final supplement of the Journal of Anesthesia and Analgesia, May 2020 (Volume 30, Issue pages 73-74), which is incorporated herein by reference. Healthy volunteers (n=34) aged 18 to 55 of either gender gave informed consent to an 1RB-approved Phase I protocol, NMB was measured by mechanomyography during sevoflurane (0.5 MAC)/N20 (70%) anesthesia. Each volunteer received a single IV bolus of RP1000,
An ED95 dose of 0.08 mg/kg was established under sevoflurane anesthesia and a dose of 0.14 mg/kg led to 100% twitch suppression in all subjects. At doses below 0,08 mg/kg, (n=18) 100% twitch inhibition occurred in NONE of the volunteers. […] volunteers, however, who were given doses of 0.08, 0.10, or 0.14 mg/kg, developed 100% block: (n=2 of 6 at 0.08, 6 of 6 at 0.10, and 4 of 4 at 0,14 mg/kg).
During spontaneous recovery from 100% block, in all volunteers, TOE stimulation was applied to the ulnar nerve every 20 seconds and the response of the thumb was monitored continuously until T1 of TOE had recovered to 95% of baseline and TOFR had reached 0.90. The total duration of block was calculated from injection to recovery of T1 to 95 percent of baseline and to recovery of TOFR to 0.90. The 5-95% recovery intervals during recovery from 100% block were measured, Following the completion of data acquisition for all dosage groups, a comparison was made by ANOVA of the 5-95% recovery times resulting after doses of 0.08, 0.10 and 0.14 mg/kg. Recovery data in the 12 volunteers who developed 100% block were then combined to show a single composite recovery pattern. ANOVA was again done to compare the recovery data (5-95% intervals) for the composite group to the corresponding intervals for the separate dosage groups of 0.08, 0.10, and 0,14 mg/kg.

cats = conditions: cited from earlier work
[1] = human, Composite of 0.08, 0.10, 0.14 mg/kg groups (n=12)
[2] = human, dose 0.08 mg/kg, recovery from 100% block
[3] = human, dose 0.1 mg/kg, recovery from 100% block
[4] = human, dose 0.14 mg/kg, recovery from 100% block
[5] = human, doses ≥ED95, approximately

For COc1ccc(C[C@@H]2c3cc(OC)c(OC)cc3CC[N@@+]2(C)CCCOC(=O)/C=C/C(=O)OCCC[N@+]2(C)CCc3cc(OC)c(OC)cc3[C@H]2Cc2ccc(OC)c(OC)c2)cc1OC.[Cl-].[Cl-] [RP1000], the “Time to maximum T1 recovery” value (Healthy volunteers; human, 0.08 mg/kg) was “about 50 minutes”, the “mean time to T4:T1>0.9” value (Healthy volunteers; human, 0.08 mg/kg) was “about 50 minutes” and the “volunteers who developed 100% block” value (Healthy volunteers; human, 0.08 mg/kg) was 2 of 6. The “Time to maximum T1 recovery” value (Healthy volunteers; human, 0.10 mg/kg) was “about 70 minutes”, the “mean time to T4:T1>0.9” value (Healthy volunteers; human, 0.10 mg/kg) was “about 70 minutes” and the “volunteers who developed 100% block” value (Healthy volunteers; human, 0.10 mg/kg) was 6 of 6. The “mean time from 5% to 95% T1 recovery” value (Healthy volunteers; human, 0.1 mg/kg and 0.145 mg/kg doses) was 35 to 40 min, the “Time to maximum T1 recovery” value (Healthy volunteers; human, 0.14 mg/kg) was “about 70 minutes” and the “mean time to T4:T1>0.9” value (Healthy volunteers; human, 0.14 mg/kg) was roughly 80 min. The “volunteers who developed 100% block” value (Healthy volunteers; human, 0.14 mg/kg) was 4 of 4, the “Recovery Time, Recovery Interval 5%-95%” value (Healthy volunteers; [1]) was 37.4 ± 6.4 min and the “Recovery Time, Recovery Interval 25%-75%” value (Healthy volunteers; [1]) was 14.9 ± 3.0 min. For the same molecule, the “Recovery Time, Recovery Interval 5%-95%” value (Healthy volunteers; [2]) was 34.8 ± 12.5 min, the “Recovery Time, Recovery Interval 25%-75%” value (Healthy volunteers; [2]) was 15.7 ± 8.4 min and the “Recovery Time, Recovery Interval 5%-95%” value (Healthy volunteers; [3]) was 39.4 ± 6.5 min. The “Recovery Time, Recovery Interval 25%-75%” value (Healthy volunteers; [3]) was 15.1 ± 2.0 min, the “Recovery Time, Recovery Interval 5%-95%” value (Healthy volunteers; [4]) was 35.6 ± 3.1 min and the “Recovery Time, Recovery Interval 25%-75%” value (Healthy volunteers; [4]) was 14.2 ± 0.9 min. The twitch suppression (Healthy volunteers; human, dose of 0.14 mg/kg, in all subjects) was 100%, the “volunteers in whom 100% twitch inhibition occurred” value (Healthy volunteers; human, doses below 0.08 mg/kg (n=18)) was “NONE” and the “volunteers who developed 100% block” value (Healthy volunteers; human, doses of 0.08, 0.10, or 0.14 mg/kg pooled) was 12 of 14. The “time to 95% T1 suppression” value (Healthy volunteers; [5]) was 2 to 3 min, the “time to maximum T1 suppression” value (Healthy volunteers; [5]) was 3 to 5 min and the “duration of NMB effect” value (Healthy volunteers; human, injection) was “intermediate duration”. The onset of action (Healthy volunteers; human, injection) was “rapid onset of action”, the “mean time to 95% T1 recovery” value (Healthy volunteers; human, 0.08 mg/kg) was “approximately 45 minutes” and the “mean time to 95% T1 recovery” value (Healthy volunteers; human, 0.10 mg/kg) was roughly 55 min. For the same molecule, the “mean time to 95% T1 recovery” value (Healthy volunteers; human, 0.14 mg/kg) was roughly 60 min, the ED95 dose (Healthy volunteers; human, under sevoflurane anesthesia) was 0.08 mg/kg and the “ED 95 for humans” value (Healthy volunteers; humans) was “about 0.077 mg/kg”. The “effects on autonomic or circulatory systems” value (cats) was “no observed ill-elects on autonomic or circulatory systems”.
